Where no end group is shown, it is not given here.
What was measured:
[1] = molecular target: H-2D^d/TAPBPR complex (Mus musculus, UniProt P01900)
[2] = molecular target: H-2D^d (Mus musculus, UniProt P01900); conditions: cited from earlier work
[3] = molecular target: H-2L^d/TAPBPR complex (Mus musculus, UniProt P01897); assay: SEC TAPBPR binding with LC-MS peptide occupancy; conditions: QL9 with 10 mM Gly-Phe dipeptide
[4] = Nano differential scanning fluorimetry (nanoDSF); format: physicochemical; conditions: FIG. 18B
Method: 10 uL of each sample was loaded on the Prometheus NT.48 instrument (NanoTemper) using the high sensitivity capillaries. NanoDSF measurements are performed using a temperature ramp rate of 1° C./min from 25° C. to 95° C. and an LED intensity of 20%. Data is analyzed using the PR Control software (NanoTemper). Melting temperatures (Tm values) correspond to the inflection points of the first derivative of the 330/350 nm fluorescence ratio. Experiments were performed in duplicates and the shaded areas (FIG. 18B) are representative of the error.

Sequence of H-2L^d/TAPBPR complex (P01897 25-309 limits assumed): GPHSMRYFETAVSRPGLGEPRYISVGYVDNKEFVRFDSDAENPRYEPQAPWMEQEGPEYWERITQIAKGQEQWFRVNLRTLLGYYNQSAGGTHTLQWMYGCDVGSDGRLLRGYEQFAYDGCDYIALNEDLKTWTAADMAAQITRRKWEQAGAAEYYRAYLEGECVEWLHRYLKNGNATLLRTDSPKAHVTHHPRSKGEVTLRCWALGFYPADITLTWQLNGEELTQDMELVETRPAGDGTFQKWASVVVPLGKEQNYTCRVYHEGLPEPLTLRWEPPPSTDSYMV
Sequence of H-2L^d/TAPBPR complex (P61769 21-119 partner): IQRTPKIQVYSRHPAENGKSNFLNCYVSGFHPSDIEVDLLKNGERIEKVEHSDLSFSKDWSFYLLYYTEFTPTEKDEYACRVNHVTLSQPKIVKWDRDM
Sequence of H-2D^d/TAPBPR complex (P01900 25-311): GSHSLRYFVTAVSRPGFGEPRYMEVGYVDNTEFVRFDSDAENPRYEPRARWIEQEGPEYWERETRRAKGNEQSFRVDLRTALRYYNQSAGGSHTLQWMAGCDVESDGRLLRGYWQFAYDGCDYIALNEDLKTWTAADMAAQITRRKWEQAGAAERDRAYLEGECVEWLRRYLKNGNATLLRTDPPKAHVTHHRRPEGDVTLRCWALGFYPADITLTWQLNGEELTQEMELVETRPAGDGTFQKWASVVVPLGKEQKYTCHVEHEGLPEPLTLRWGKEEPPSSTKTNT
Sequence of H-2D^d/TAPBPR complex (P61769 21-119, further chain): as the sequence (P61769 21-119 partner) above
Sequence of H-2D^d (P61769 21-119): as the sequence (P61769 21-119 partner) above
Sequence of H-2D^d (P01900 25-311): as the sequence (P01900 25-311) above

Question: What does the source list for GPGRAFVTI [gP18-I10]?
Answer: peptide occupancy in the presence of TAPBPR [1]: dissociates in the presence of TAPBPR; increase in the peptide off-rate relative to full-length P18-I10 [2]: 100 fold

Question: For QLSPFPFDL [QL9, reference compound], which “peptide occupancy in the presence of TAPBPR” value [3] is on record?
Answer: could obtain empty H-2L^d:TAPBPR complexes

Question: Which “Tm (nanoDSF inflection point)” value [4] does the source give for “TAPBPR: TAPasin Binding Protein Related chaperone, recombinant luminal domain” here?
Answer: 52.5 °C

Question: For “_PNVNIHNF (not fully specified (N-terminus); printed as _PNVNIHNF) [gp29]”, which “peptide occupancy in the presence of TAPBPR” value [3] is on record?
Answer: remained bound

— US12630606B2, “Peptide deficient-MHC class I/chaperone compositions and methods” (priority 2018, dated 2026)
